According to patent US20210038587A1, “METHODS AND COMPOSITIONS FOR TREATING NON-ERK MAPK PATHWAY INHIBITOR-RESISTANT CANCERS” (BIOMED VALLEY DISCOVERIES, INC., priority 2013, published 2021):

Key:
Assay in all cases: Reverse Phase Protein Analysis (RPPA)
[1] = tested on: MIAPaCa-2; type: cell-based; conditions: MIAPaca2; % change from DMSO (matched cell line)
Description: (§2) Control wells were treated with DMSO at 0.1% (v/v) for 6 hours prior to cell lysate generation. Samples were then analyzed using reverse-phase protein microarray technology (Theranostics Health).
(§3) Cell lines with common alterations in BRAF and RAS were assayed: BRAF^V600E mutant lines A375, Colo205, and HT29; KRAS^G12C-mutant cell line MIAPACa-2; KRAS^G13D-mutant cell line HCT116; and AN3Ca with atypical HRAS^F82L mutation.

[2] = tested on: Colo205; type: cell-based, human; conditions: % change from DMSO (matched cell line)
Description: as §2, §3

[3] = tested on: HCT116; type: cell-based, human; conditions: % change from DMSO (matched cell line)
Outline: (§1)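 Cells were treated 6 h before lysis, with 0.1% (v/v) DMSO as control. Lysates were analysed by reverse-phase protein microarray. Protein changes are expressed as percentage change from DMSO-treated parental cells.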

[4] = tested on: A375; type: cell-based, human; conditions: % change from DMSO (matched cell line)
Outline: as §1

Cc1cnc(Nc2ccc(F)cc2Cl)nc1-c1c[nH]c(C(=O)N[C@H](CO)c2cccc(Cl)c2)c1 [Vx-11e]
Avg (4ebp1 T70) [1]: −15.72% | Avg (Akt S473) [1]: 0.48% | Avg (Akt) [1]: −0.15% | Avg (Bad S136) [1]: 0.36% | Avg (Bad S155) [1]: 7.38% | Avg (Bak) [1]: −1.93% | Avg (Bax) [1]: 4.33% | Avg (Bcl 2) [1]: −2.3% | Avg (Bcl2 S70) [1]: −7.83% | Avg (Bcl 2 T56) [1]: −9.86% | Avg (Bim) [1]: 2.1% | Avg (CREB S133) [1]: −13.28% | Avg (Caspase 3 CL D175) [1]: 6.17% | Avg (Caspase 7 Cl D198) [1]: −0.32% | Avg (Chk1) [1]: −1.8% | Avg (Chk1 S345) [1]: 2.09% | Avg (Cyclin D1) [1]: −33.96% | Avg (ERK 1 2) [1]: −14.85% | Avg (ERK 1 2 T202 Y204) [1]: 729.27% | Avg (MAK1 S360) [1]: −0.87% | Avg (Mcl1) [1]: −6.58% | Avg (Raptor S792) [1]: −3.74% | Avg (Raptor) [1]: 5.4% | Avg (Rictor) [1]: −13.24% | Avg (Stat1) [1]: −1.64% | Avg (Stat3) [1]: 0.61% | Avg (bad S112) [1]: −20.85% | Avg (c Fos) [1]: −4.43% | Avg (c Myc) [1]: −5.94% | Avg (mTOR S2448) [1]: −5.38% | Avg (mTOR S2481) [1]: −3.12% | Avg (mTOR) [1]: −1.58% | Avg (p70 S6 Kinase) [1]: −9.27% | Avg (p90 RSK S380) [1]: −39.91% | Avg(S6 Ribo Prot S235 236) [1]: −63.36% | Avg(S6 Ribo Prot S240 244) [1]: −74.82% | Avg(Tuberin TSC2 Y1571) [1]: −0.01% | Avg(p70 S6 Kinase S371 S394) [1]: −30.35% | Avg(p70 S6 Kinase T389 T412) [1]: −30.66% | Avg (4ebp1 T70) [2]: −43.71% | Avg (Akt S473) [2]: −10.96% | Avg (Akt) [2]: −12.51% | Avg (Bad S136) [2]: −1.01% | Avg (Bad S155) [2]: −9.72% | Avg (Bak) [2]: −2.79% | Avg (Bax) [2]: −9.16% | Avg (Bcl 2) [2]: −14.09% | Avg (Bcl2 S70) [2]: −20.82% | Avg (Bcl 2 T56) [2]: −12.02% | Avg (Bim) [2]: 34.1% | Avg (CREB S133) [2]: −10.64% | Avg (Caspase 3 CL D175) [2]: −2.67% | Avg (Caspase 7 Cl D198) [2]: 0.03% | Avg (Chk1) [2]: −9.16% | Avg (Chk1 S345) [2]: 13.12% | Avg (Cyclin D1) [2]: −39.79% | Avg (ERK 1 2) [2]: −12.32% | Avg (ERK 1 2 T202 Y204) [2]: 98.48% | Avg (MAK1 S360) [2]: 6.22% | Avg (Mcl1) [2]: −10.64% | Avg (Raptor S792) [2]: 0.2% | Avg (Raptor) [2]: −0.05% | Avg (Rictor) [2]: 1.65% | Avg (Stat1) [2]: −6.1% | Avg (Stat3) [2]: −7.96% | Avg (bad S112) [2]: −30.28% | Avg (c Fos) [2]: −19.34% | Avg (c Myc) [2]: −7.42% | Avg (mTOR S2448) [2]: −8.52% | Avg (mTOR S2481) [2]: −9.43% | Avg (mTOR) [2]: 3.62% | Avg (p70 S6 Kinase) [2]: −3.42% | Avg (p90 RSK S380) [2]: −58.6% | Avg(S6 Ribo Prot S235 236) [2]: −93.04% | Avg(S6 Ribo Prot S240 244) [2]: −94.89% | Avg(Tuberin TSC2 Y1571) [2]: −9.45% | Avg(p70 S6 Kinase S371 S394) [2]: −13.64% | Avg(p70 S6 Kinase T389 T412) [2]: −28% | Avg (4ebp1 T70) [3]: 10.35% | Avg (Akt S473) [3]: −16.94% | Avg (Akt) [3]: −18.15% | Avg (Bad S136) [3]: −5.39% | Avg (Bad S155) [3]: −15.59% | Avg (Bak) [3]: −3.07% | Avg (Bax) [3]: −20.46% | Avg (Bcl 2) [3]: −17.3% | Avg (Bcl2 S70) [3]: −17.79% | Avg (Bcl 2 T56) [3]: −25% | Avg (Bim) [3]: 4.82% | Avg (CREB S133) [3]: −9.17% | Avg (Caspase 3 CL D175) [3]: −5.19% | Avg (Caspase 7 Cl D198) [3]: −11.41% | Avg (Chk1) [3]: −8.63% | Avg (Chk1 S345) [3]: −16.49% | Avg (Cyclin D1) [3]: −72.72% | Avg (ERK 1 2) [3]: −24.01% | Avg (ERK 1 2 T202 Y204) [3]: 873.33% | Avg (MAK1 S360) [3]: −13.73% | Avg (Mcl1) [3]: −7.79% | Avg (Raptor S792) [3]: −11.21% | Avg (Raptor) [3]: −4.32% | Avg (Rictor) [3]: 1.78% | Avg (Stat1) [3]: −14.06% | Avg (Stat3) [3]: −7.76% | Avg (bad S112) [3]: −23.88% | Avg (c Fos) [3]: −13.89% | Avg (c Myc) [3]: −18.56% | Avg (mTOR S2448) [3]: −10.12% | Avg (mTOR S2481) [3]: −17.82% | Avg (mTOR) [3]: −0.59% | Avg (p70 S6 Kinase) [3]: −4.45% | Avg (p90 RSK S380) [3]: −33.05% | Avg(S6 Ribo Prot S235 236) [3]: −90.03% | Avg(S6 Ribo Prot S240 244) [3]: −86.06% | Avg(Tuberin TSC2 Y1571) [3]: −16.51% | Avg(p70 S6 Kinase S371 S394) [3]: −9.89% | Avg(p70 S6 Kinase T389 T412) [3]: −20.99% | Avg (4ebp1 T70) [4]: 23.33% | Avg (Akt S473) [4]: 93.85% | Avg (Akt) [4]: −30.34% | Avg (Bad S136) [4]: 5.06% | Avg (Bad S155) [4]: −6.3% | Avg (Bak) [4]: 0.65% | Avg (Bax) [4]: −5.05% | Avg (Bcl 2) [4]: −9.93% | Avg (Bcl2 S70) [4]: −4.02% | Avg (Bcl 2 T56) [4]: −7.53% | Avg (Bim) [4]: 12.32% | Avg (CREB S133) [4]: −15.8% | Avg (Caspase 3 CL D175) [4]: −9.27% | Avg (Caspase 7 Cl D198) [4]: −7.62% | Avg (Chk1) [4]: −0.86% | Avg (Chk1 S345) [4]: 0.56% | Avg (Cyclin D1) [4]: −85.46% | Avg (ERK 1 2) [4]: −5.39% | Avg (ERK 1 2 T202 Y204) [4]: 128.93% | Avg (MAK1 S360) [4]: −7.63% | Avg (Mcl1) [4]: 1.6% | Avg (Raptor S792) [4]: −0.86% | Avg (Raptor) [4]: −12.7% | Avg (Rictor) [4]: −8.16% | Avg (Stat1) [4]: 0.23% | Avg (Stat3) [4]: 1.71% | Avg (bad S112) [4]: −69.29% | Avg (c Fos) [4]: −13.65% | Avg (c Myc) [4]: −0.97% | Avg (mTOR S2448) [4]: −21.66% | Avg (mTOR S2481) [4]: −2.9% | Avg (mTOR) [4]: −3.31% | Avg (p70 S6 Kinase) [4]: −6.42% | Avg (p90 RSK S380) [4]: −65.25% | Avg(Tuberin TSC2 Y1571) [4]: −3.55% | Avg(p70 S6 Kinase S371 S394) [4]: −17.32% | Avg(p70 S6 Kinase T389 T412) [4]: −25.54%
